Test results as given in ChEMBL document CHEMBL3046061, “Quinolinedione nucleus as a novel scaffold for A1 and A2A adenosine receptor antagonists” (Med Chem Res, 2008).
pKi: −log10 of the molar value.

What was measured:
Adenosine receptor A1 [1] = molecular target: T1, Adenosine receptor A1 (Bos taurus, UniProt P28190); assay: Displacement of [3H]DPCPX from adenosine A1 receptor in Bos taurus (bovine) cortical membrane
T1 sequence (P28190 whole entry): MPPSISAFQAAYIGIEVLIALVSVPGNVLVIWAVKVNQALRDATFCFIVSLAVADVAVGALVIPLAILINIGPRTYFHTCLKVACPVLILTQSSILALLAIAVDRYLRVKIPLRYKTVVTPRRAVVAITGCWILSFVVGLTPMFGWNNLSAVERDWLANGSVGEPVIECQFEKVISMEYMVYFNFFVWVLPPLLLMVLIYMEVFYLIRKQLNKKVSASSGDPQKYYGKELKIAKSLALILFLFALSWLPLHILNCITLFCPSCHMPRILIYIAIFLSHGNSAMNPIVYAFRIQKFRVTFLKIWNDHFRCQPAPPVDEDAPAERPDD

Uncharacterized protein = Uncharacterized protein (Bos taurus, UniProt E1BKU0); assay: Displacement of [3H]CGS21680 from adenosine A2A receptor in Bos taurus (bovine) cortical membrane
Sequence of Uncharacterized protein (E1BKU0 whole entry): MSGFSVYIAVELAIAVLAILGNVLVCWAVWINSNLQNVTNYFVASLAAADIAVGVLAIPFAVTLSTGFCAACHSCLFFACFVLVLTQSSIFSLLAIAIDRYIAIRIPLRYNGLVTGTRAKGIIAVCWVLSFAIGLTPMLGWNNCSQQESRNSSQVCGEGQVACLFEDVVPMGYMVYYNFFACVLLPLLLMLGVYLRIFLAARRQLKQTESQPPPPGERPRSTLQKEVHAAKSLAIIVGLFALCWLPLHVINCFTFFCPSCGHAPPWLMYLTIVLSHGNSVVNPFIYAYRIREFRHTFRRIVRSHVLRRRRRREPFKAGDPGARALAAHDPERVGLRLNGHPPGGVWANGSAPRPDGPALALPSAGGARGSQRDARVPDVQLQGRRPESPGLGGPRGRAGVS

[2] = molecular target: T2, Adenosine receptor A1 (Homo sapiens) (UniProt P30542); assay: Displacement of [3H]DPCPX from Homo sapiens (human) adenosine A1 receptor expressed in CHO cells at 10 uM; type: cell-based
T2 sequence (whole entry): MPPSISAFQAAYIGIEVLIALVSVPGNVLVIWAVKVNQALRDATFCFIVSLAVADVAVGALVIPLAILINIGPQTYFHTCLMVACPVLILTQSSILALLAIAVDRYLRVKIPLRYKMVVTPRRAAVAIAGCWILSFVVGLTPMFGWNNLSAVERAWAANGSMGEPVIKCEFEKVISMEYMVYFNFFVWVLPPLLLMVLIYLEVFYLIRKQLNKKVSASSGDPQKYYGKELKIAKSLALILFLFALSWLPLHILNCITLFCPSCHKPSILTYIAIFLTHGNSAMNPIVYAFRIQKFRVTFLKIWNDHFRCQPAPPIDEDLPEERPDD

Adenosine receptor A2a [3] = molecular target: T3, Adenosine receptor A2a (Homo sapiens, UniProt P29274); assay: Displacement of [3H]CGS21680 from Homo sapiens (human) adenosine A2A receptor expressed in CHO cells; type: cell-based
T3 sequence (P29274 whole entry): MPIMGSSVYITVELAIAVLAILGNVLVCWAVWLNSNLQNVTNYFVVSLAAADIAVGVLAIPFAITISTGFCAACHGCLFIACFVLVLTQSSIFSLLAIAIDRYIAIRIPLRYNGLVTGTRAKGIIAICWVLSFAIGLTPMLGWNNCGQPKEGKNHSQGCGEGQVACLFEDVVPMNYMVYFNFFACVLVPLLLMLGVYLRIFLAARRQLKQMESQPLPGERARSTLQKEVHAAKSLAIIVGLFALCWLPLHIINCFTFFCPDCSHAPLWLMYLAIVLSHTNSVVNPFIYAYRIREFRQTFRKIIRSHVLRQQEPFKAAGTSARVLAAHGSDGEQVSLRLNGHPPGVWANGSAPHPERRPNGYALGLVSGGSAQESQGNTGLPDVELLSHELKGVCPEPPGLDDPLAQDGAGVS

[4] = molecular target: T4, Adenosine receptor A3 (Homo sapiens) (UniProt P0DMS8); assay: Displacement of [125I]AB-MECA from Homo sapiens (human) adenosine A3 receptor expressed in CHO cells at 10 uM; type: cell-based
T4 sequence (whole entry): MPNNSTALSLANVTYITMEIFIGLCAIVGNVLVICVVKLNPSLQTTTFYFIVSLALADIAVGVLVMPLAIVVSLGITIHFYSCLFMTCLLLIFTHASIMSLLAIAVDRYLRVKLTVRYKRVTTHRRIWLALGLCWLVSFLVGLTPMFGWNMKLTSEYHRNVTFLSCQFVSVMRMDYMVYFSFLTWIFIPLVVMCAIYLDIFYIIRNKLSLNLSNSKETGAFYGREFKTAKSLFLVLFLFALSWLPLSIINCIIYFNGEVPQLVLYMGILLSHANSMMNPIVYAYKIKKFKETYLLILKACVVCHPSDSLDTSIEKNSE

[5] = test system: cAMP phosphodiesterase 3 (Cavia porcellus); assay: Inhibition of Cavia porcellus (guinea pig) PDE3 isolated from heart using [3H]cAMP as substrate at 1 uM by two-step method
[6] = test system: cAMP phosphodiesterase 3 (Cavia porcellus); assay: Inhibition of Cavia porcellus (guinea pig) PDE3 isolated from heart using [3H]cAMP as substrate at 50 uM by two-step method
[7] = test system: cAMP phosphodiesterase 3 (Cavia porcellus); assay: Inhibition of Cavia porcellus (guinea pig) PDE3 isolated from heart using [3H]cAMP as substrate at 10 uM by two-step method
[8] = test system: cAMP phosphodiesterase 3 (Cavia porcellus); assay: Inhibition of Cavia porcellus (guinea pig) PDE3 isolated from heart using [3H]cAMP as substrate at 100 uM by two-step method
[9] = molecular target: T5, Adenosine receptor A1 (Bos taurus) (UniProt P28190); assay: Displacement of [3H]DPCPX from adenosine A1 receptor in Bos taurus (bovine) cortical membrane at 10 uM
T5 sequence (whole entry): T1 sequence (P28190 whole entry)

[10] = molecular target: Uncharacterized protein (Bos taurus) (UniProt E1BKU0); assay: Displacement of [3H]CGS21680 from adenosine A2A receptor in Bos taurus (bovine) cortical membrane at 10 uM
Sequence of Uncharacterized protein (Bos taurus) (E1BKU0 as listed by the source): as the sequence (E1BKU0 whole entry) above

Adenosine receptor A2a [11] = molecular target: T3, Adenosine receptor A2a; assay: Displacement of [3H]CGS21680 from Homo sapiens (human) adenosine A2A receptor expressed in CHO cells at 10 uM; type: cell-based
Adenosine receptor A1 [12] = molecular target: T6, Adenosine receptor A1 (Homo sapiens, UniProt P30542); assay: Displacement of [3H]DPCPX from Homo sapiens (human) adenosine A1 receptor expressed in CHO cells; type: cell-based
T6 sequence (P30542 whole entry): T2 sequence (whole entry)

| Structure (SMILES) | pKi (Adenosine receptor A1 [1]) | pKi (Uncharacterized protein) | inhibition [2] | pKi (Adenosine receptor A2a [3]) | inhibition [4] | inhibition [5] | inhibition [6] | inhibition [7] | inhibition [8] | inhibition [9] | inhibition [10] | inhibition (Adenosine receptor A2a [11]) | pKi (Adenosine receptor A1 [12]) |
| --- | --- | --- | --- | --- | --- | --- | --- | --- | --- | --- | --- | --- | --- |
| CC(C)(C)C(=O)c1cc2c([nH]c1=O)CC(c1ccccc1)CC2=O (centres undefined) | 5.29 | 4.82 | 11% | 4.80 | 21% | 0% | 3.3% | 0.8% | 4.2% | – | – | – | – |
| CC(=O)c1cc(C(=O)C(C)(C)C)c(=O)[nH]c1C | – | – | – | – | 13% | 0% | 2.15% | 1.15% | 8.23% | 0% | 11% | – | – |
| CC(C)(C)C(=O)c1cc2c([nH]c1=O)CCCC2=O | – | – | 0% | – | 0% | 0% | 6.6% | 2.5% | 6.6% | 13% | 0% | – | – |
| O=C1CC(c2ccccc2)Cc2[nH]c(=O)c(C(=O)c3ccccc3)cc21 (centres undefined) | 5.19 | – | 5% | – | 0% | 0% | 1.7% | 5.2% | 7.8% | – | 0% | 16% | – |
| O=C1CCCc2[nH]c(=O)c(S(=O)(=O)c3ccccc3)cc21 | – | – | 36% | – | 0% | 0% | 4.7% | 0% | 5.7% | 10% | 2% | – | – |
| O=C1CCCc2[nH]c(=O)c(C(=O)c3ccccc3)cc21 | – | – | – | – | 0% | 0% | 4.3% | 0% | 6% | 6% | 4% | – | – |
| O=C1CC(c2ccccc2)Cc2[nH]c(=O)c(S(=O)(=O)c3ccccc3)cc21 (centres undefined) | 5.24 | 5.10 | – | 5.15 | 18% | 0% | 5.7% | 0% | 10.4% | – | – | – | 5.11 |
| CC(=O)c1cc(S(=O)(=O)c2ccccc2)c(=O)[nH]c1C | – | – | – | – | 0% | 0% | 3.98% | 1.03% | 8.72% | 0% | 0% | – | – |
| O=C(c1ccccc1)c1cc(C(=O)c2ccccc2)c(=O)[nH]c1-c1ccccc1 | – | – | 2% | – | 2% | 0% | 5.4% | 1.76% | 9.6% | 13% | 8% | 13% | – |
| O=C(c1ccccc1)c1cc(S(=O)(=O)c2ccccc2)c(=O)[nH]c1-c1ccccc1 | – | – | 1% | – | 0% | 0% | 3.5% | 0% | 7.53% | 8% | 8% | 11% | – |
| CC(=O)c1cc(C(=O)c2ccccc2)c(=O)[nH]c1C | – | – | – | – | 0% | 0% | 4.35% | 2% | 8.9% | 0% | 0% | – | – |
